Key:
[1] = system: TrkB; assay: QRT-PCR of hippocampal tissue from kindled rats, TrkB; type: in vivo, rat
Excerpt: Values plotted are BDNF or TrkB expression over Actin using rat hippocampal cDNA from an untreated rat for a standard curve. Specifically, mRNA was extracted from hippocampus tissue from rats treated with 2-DG or untreated control rats subjected to kindling stimulation to mimic epilepsy. […] The levels of actin mRNA were not affected by 2-DG treatment. Importantly, the differences in expression of BDNF or TrkB in the absence or presence of 2DG were present after 5 ADs in association with a large difference in AD threshold between 2DG-treated and control rats (FIG. 3 lanes 5 versus 6 and 7 versus 8).

[2] = system: actin (not an NRSF target); assay: QRT-PCR of actin in JTC-19 cells; type: cell-based, rat; settings: 1 mM 2-DG for 24 hrs
Excerpt: (§1) FIG. 5 are graphs showing the results of quantitative reverse-transcriptase-PCR experiments, wherein NaV1.2 is sodium type II (NaV1.2); BDNF is Brain Derived Neurotrophic Factor (BDNF) and CHRM4 is muscarinic acetylcholine receptor type 4 (CHRM4), all genes repressed by NRSE/NRSF, and actin (not an NRSF target).
(§2) Firefly luciferase measurements were normalized to co-transfected pRL-TK and expressed as fold repression (gal4 DBD/gal4-NRSF). Values are the average of at least three experiments performed in triplicate. Error bars indicate standard errors. […] In these experiments, cells were grown in the presence or absence of 1 mM 2-DG for 24 hrs, harvested and RNA subjected to QRT-PCR with primers to the NRSF target genes Sodium Type II (NaV1.2), Brain Derived Neurotrophic Factor (BDNF) and Muscarinic Acetylcholine Receptor Type 4 (CHRM4) or actin (not an NRSF target). Rat hippocampal cDNA was used to generate a standard curve and values plotted are microliter equivalents of hippocampal cDNA.

[3] = system: CHRM4; assay: QRT-PCR of CHRM4 in CtBP1/CtBP2 mutant Mouse Embryonic Fibroblasts; type: cell-based; settings: 1 mM 2-DG
Protocol: FIG. 7C is a graph of normalized CHRM4 expression in MEFs bearing an inactivating mutation in heterozygous (−/+) or homozygous (−/−) state for both CtBP1 and CtBP2, assayed in the presence of absence of 2-DG.
To test whether CtBP was required for NRSF repression of chromosomal genes, expression levels of NRSF target genes were assayed in Mouse Embryonic Fibroblasts (MEFs) heterozygous or homozygous for deletions of both CtBP1 and CtBP2 (as described in Hildebrand & Soriano, 2002, Mol Cell Biol 22: 5296-307). In these experiments, wild type MEFs or MEFs heterozygous (CtBP1^−/+2^−/+) or homozygous (CtBP1^−/−2^−/−) for both CtBP1 and CtBP2 mutants were analyzed for CHRM4, Myelin Basic Protein (MBP) and hypoxanthine phosphoribosyl transferase (HPRT, as a non-NRSF regulated control) expression by QRT-PCR as described in Example 2. […] The expression levels of both genes were further elevated in CtBP1^−/−/2^−/− cells, consistent with a dose-responsive co-repressor function for CtBP.

[4] = system: actin promoter; assay: ChIP on hippocampi of rats administered 2-DG or saline, actin promoter; type: in vivo; settings: rat hippocampi, without regard to the glycolytic state
Excerpt: FIG. 10I is a graph of CHIP assays performed on hippocampi from rats administered 2-DG or saline for 2 weeks and using a cocktail of anti-CtBP1 and anti-CtBP2 antibody or sham antibody and primers flanking the BDNF NRSE or actin promoter. Data is plotted as quantity of DNA specifically precipitated in picograms.
The above results predicted that CtBP would be present at the BDNF NRSF binding site in rat hippocampi and that occupancy at this site should be augmented in the presence of 2-DG. To test this prediction, ChIP assays were performed using anti-CtBP antibody on chromatin isolated from 2DG-treated rats as above. Hippocampi from rats administered 2-DG or saline for 2 weeks were subjected to ChIP with a cocktail of anti-CtBP1 and anti-CtBP2 antibody or sham antibody and primers flanking the BDNF NRSE or actin promoter. […] CtBP was not detected at the actin promoter without regard to the glycolytic state of the animal, as expected for a gene not under NRSF regulatory control.

[5] = system: NRSF target genes Sodium Type II (NaV1.2), BDNF, CHRM4; assay: QRT-PCR of chromosomal NRSF target genes in JTC-19 cells; type: cell-based, rat; settings: 1 mM 2-DG for 24 hrs
Excerpt: as §1, §2

O=CC[C@@H](O)[C@H](O)[C@H](O)CO [2-DG, 2-deoxy-D-glucose]
hippocampal TrkB expression compared to control animals ([1]; QRT-PCR, expression over actin, FIG. 3 lanes 3 versus 4): significantly reduced | difference in expression of TrkB in absence or presence of 2DG ([1]; after 5 ADs): present | TrkB expression, 2DG-treated versus control rats ([1]; rats that experienced 3 Class V seizures): no difference in expression | actin levels [2]: unaffected | CHRM4 expression ([3]; CtBP1-/+/2-/+ cells): repressed | CHRM4 expression ([3]; CtBP1-/-/2-/- cells): not altered | CtBP at the actin promoter [4]: not detected | expression of chromosomal NRSF target genes [5]: repressed
